Source: publication PMC4444023 (PLoS ONE, 2015)
Values joined by “and” are separate entries in the source; they are usually repeats but may differ in a detail not shown here. Identical values can stand only once. Each block holds one molecule with its values, some of them ahead of it.

Assays:
human nSMase2 [1] = biological target: T1, human nSMase2 (Homo sapiens, UniProt Q9NY59); test: Fluorescence (Amplex red coupled) nSMase2 activity assay; format: biochemical; set-up: Full length human nSMase2 cDNA with a C-terminal Flag tag; crude cell lysate used as enzyme
T1 sequence (Q9NY59 1-655): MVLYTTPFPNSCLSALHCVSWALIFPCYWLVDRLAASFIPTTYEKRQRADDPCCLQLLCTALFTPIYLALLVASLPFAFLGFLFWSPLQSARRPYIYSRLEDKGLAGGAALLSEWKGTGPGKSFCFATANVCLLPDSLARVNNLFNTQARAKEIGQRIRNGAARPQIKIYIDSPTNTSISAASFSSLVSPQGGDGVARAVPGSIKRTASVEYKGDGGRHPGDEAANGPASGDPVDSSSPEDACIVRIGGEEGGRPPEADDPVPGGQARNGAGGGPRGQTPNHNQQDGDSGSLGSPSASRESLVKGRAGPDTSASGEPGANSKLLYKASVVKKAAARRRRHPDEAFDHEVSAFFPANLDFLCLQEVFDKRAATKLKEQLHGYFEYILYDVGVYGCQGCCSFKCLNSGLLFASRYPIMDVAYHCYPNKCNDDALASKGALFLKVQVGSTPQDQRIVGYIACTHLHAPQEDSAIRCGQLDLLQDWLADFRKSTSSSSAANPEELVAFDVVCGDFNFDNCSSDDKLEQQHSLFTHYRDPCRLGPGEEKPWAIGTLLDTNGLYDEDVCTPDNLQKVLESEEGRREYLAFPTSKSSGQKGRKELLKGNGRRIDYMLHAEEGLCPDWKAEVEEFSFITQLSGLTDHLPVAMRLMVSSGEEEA
Method: The production of the latter was coupled to a dephosphorylation reaction catalyzed by alkaline phosphatase (4 U/ml) to produce choline, followed by oxidation of choline by choline oxidase (0.1 U/ml) to produce betaine and H2O2, which in the presence of horseradish peroxidase (HRP, 1U/ml) and 50 μM Amplex red, generates the fluorescent molecule resorufin (Life Technologies). Substrate stock solution was prepared in 2% Triton X-100, vortexed and sonicated for 30 min. Reactions were carried out for 1 h at 37°C in 100 mM Tris-HCl pH 7.4, 10 mM MgCl2, 0.2% Triton X-100 and the generation of the fluorescent product was monitored by measuring relative florescence units (RFU) with excitation at 530 nm and emission at 590 nm (Fig 1). This assay was optimized for 384-well format (50 μl total volume per well) based on linearity of the enzymatic activity with respect to time, as well as substrate and enzyme concentrations. […] This fluorescence assay was used for compound screening and IC50 value determinations, based on duplicate eight-point dose response curves.

human nSMase2 [2] = biological target: T1, human nSMase2; test: 14C-SM confirmatory direct activity assay; format: biochemical; set-up: Full length human nSMase2 cDNA with a C-terminal Flag tag; host or cells: HEK293, stably transfected; crude cell lysate used as enzyme; conditions: for human nSMase2 inhibitory activity of analog vs cambinol: SAR; for IC50: [14C]-SM direct activity assay, human recombinant enzyme
Method: This assay was dependent on the direct hydrolysis of ^14C-labeled SM (^14C N-methyl groups in the phosphorylcholine) by human nSMase2. Optimization of assay conditions was accomplished according to the methods of Barbone et al.. Briefly, bovine [N-methyl-^14C]-sphingomyelin (specific activity […], Perkin Elmer) and phosphatidylinositol (Avanti Polar Lipids) were evaporated to dryness under a stream of nitrogen and resuspended at an equimolar concentration of 0.1 mM in water with 0.5% Triton X-100 (Sigma). The solution was vortexed for 30 min and then sonicated for 30 min. Assay conditions were as follows: 50 μl total volume per reaction, consisting of 20 μM SM, reaction buffer (100 mM Tris-HCl pH 7.5, 80 mM MgCl2, 0.1% Triton X-100); 10 μl cell lysate containing recombinant human nSMase2 (0.5–1 μg protein/assay) and 5 μl of compound in reaction buffer containing 10% DMSO. After 1 h incubation at 37°C the reaction was terminated by the addition of 30 μl of water and 175 μl of chloroform/methanol (2:1, v:v), followed by vigorous vortexing. Tubes were centrifuged for 5 min at 10,000 xg at room temperature to separate the organic bottom phase containing labeled SM and the aqueous upper phase containing ^14C-labeled-phosphorylcholine. An aliquot (50 μl) of the upper phase was transferred to a vial with 10 ml of scintillant and counted for 2 min on a Beckman LS-6000IC scintillation counter. Enzyme activity was directly proportional to the disintegrations per min (dpm) resulting from the generation of ^14C-phosphorylcholine.

[3] = tested on: rat primary hippocampal neurons; test: Hippocampal neuronal survival (Hoechst 33342); format: cell-based
Method: All animal procedures were approved by the Johns Hopkins University Animal Care and Use Committee. Primary hippocampal neurons were prepared from day 18 decapitated embryos of Sprague-Dawley rats following previously described methods. Cells were seeded on polyethyleneimine (PEI)-coated slides in 12-well plates and cultured between 14–21 days. […] After 18 h, cells were stained with 50 μg/ml Hoeschst 33342 for 20 min and then fixed with 4% paraformaldehyde for 30 min. The number of living and apoptotic cells was determined by fluorescence microscopy. A minimum of 500 cells were counted per treatment condition. Results were normalized to control untreated cells and were representative of at least two independent experiments conducted in triplicate. Statistical evaluation of the data was done by Student’s t-test.

[4] = tested on: rat primary cortical neurons; test: Lipid extraction and ceramide measurements (LC-MS/MS); format: cell-based
Method: Primary cortical neurons were prepared from embryonic day 18 Sprague-Dawley rats following previously described methods. […] A crude lipid extract from cortical neurons was obtained using a modified Bligh and Dyer procedure. Ceramide C12:0 (Avanti Polar Lipids) was included as an internal standard. The organic layers were dried in a nitrogen evaporator (Organomation Associates Inc.) and stored at -80°C. Dried organic layers were resuspended in methanol just prior to analysis. The detection and quantitation of individual ceramide species was performed on a high-performance liquid chromatography (HPLC) coupled electrospray ionization triple quadrupole mass spectrometer (API3000, AB Sciex Inc.) using settings similar to those described in previous studies. Samples were handled by a CTC PAL autosampler (LEAP Technologies Inc.) and injected into an HPLC (PerkinElmer) equipped with a reverse phase C18 column (Phenomex). […] The eluted sample was injected into the electrospray ionization source and detection of each ceramide species was conducted by multiple reaction monitoring. Spectral analysis was conducted using MultiQuant (AB Sciex Inc.), individually validated and normalized to the internal standard. Final data for each ceramide species in counts per second was expressed as the ratio of analyte/internal standard.

[5] = 100 ng/ml IL1β 18 h, 10 µM compound
[6] = 100 ng/ml IL1β 18 h, 25 µM compound
[7] = 100 ng/ml TNFα 18 h, 10 µM compound
[8] = 100 ng/ml TNFα 18 h, 25 µM compound
[9] = TNF-a: 100 ng/ml TNF-α for 2 min

Molecule: O=c1[nH]c(-c2ccccc2)c(Cc2c(O)ccc3ccccc23)c(=O)[nH]1 [compound 2]
%Inhibition (human nSMase2 [2]; Log [compound] -4.0): -11.0% and -13.0% | %Inhibition (human nSMase2 [2]; Log [compound] -5.0): -11.0% and -12.0% | %Inhibition (human nSMase2 [2]; Log [compound] -6.0): -2.0% and -3.0% | %Inhibition (human nSMase2 [2]; Log [compound] -7.0): 3.0% and 0.0% | %Inhibition (human nSMase2 [2]; Log [compound] -9.0): 4.0% | %Inhibition (human nSMase2 [2]; Log [compound] -10.0): -1.0% and -2.0% | human nSMase2 inhibitory activity of analog vs cambinol (human nSMase2 [2]): loss of activity | IC50 (human nSMase2 [2]): > 100 µM | neuron survival, Mean (normalized to control untreated cells) [3, 5]: 79.08 | neuron survival, Mean (normalized to control untreated cells) [3, 6]: 81.7 | neuron survival, Mean (normalized to control untreated cells) [3, 7]: 76.55 | neuron survival, Mean (normalized to control untreated cells) [3, 8]: 81.8

Molecule: Cc1ccccc1-c1[nH]c(=S)[nH]c(=O)c1Cc1c(O)ccc2ccccc12 [compound 6]
%Inhibition (human nSMase2 [2]; Log [compound] -4.0): 95.0% and 94.0% | %Inhibition (human nSMase2 [2]; Log [compound] -5.0): 80.0% and 79.0% | %Inhibition (human nSMase2 [2]; Log [compound] -6.0): 22.0% and 21.0% | %Inhibition (human nSMase2 [2]; Log [compound] -7.0): 2.0% and 0.0% | %Inhibition (human nSMase2 [2]; Log [compound] -8.0): -8.0% and -11.0% | %Inhibition (human nSMase2 [2]; Log [compound] -9.0): -1.0% and -3.0% | %Inhibition (human nSMase2 [2]; Log [compound] -10.0): -11.0% and -10.0% | IC50 (human nSMase2 [2]): 3 µM

Molecule: O=c1[nH]c(=S)[nH]c(-c2ccc(Br)cc2)c1Cc1c(O)ccc2ccccc12 [compound 7]
IC50 (human nSMase2 [2]): 2 ± 1 µM

Molecule: O=c1[nH]c(=S)[nH]c(-c2ccccc2F)c1Cc1c(O)ccc2ccccc12 [compound 9]
IC50 (human nSMase2 [2]): 6 ± 3 µM

Molecule: O=P(O)(O)C(O)(Cn1ccnc1)P(=O)(O)O [zoledronic acid, reference compound]
neuron survival, Mean (normalized to control untreated cells) [3, 5]: 84.88 | neuron survival, Mean (normalized to control untreated cells) [3, 6]: 85.75 | neuron survival, Mean (normalized to control untreated cells) [3, 7]: 80.07 | neuron survival, Mean (normalized to control untreated cells) [3, 8]: 81.28

Molecule: TNF-α
Ceramide d18:1/16:0, ratio analyte/internal standard [4, 9]: 2.626 and 2.724 and 1.914 and 2.181 and 2.47 and 2.215 | Ceramide d18:1/18:0, ratio analyte/internal standard [4, 9]: 9.562 and 9.737 and 7.685 and 8.892 and 9.601 and 8.529 | Ceramide d18:1/20:0, ratio analyte/internal standard [4, 9]: 0.6563 and 0.629 and 0.4932 and 0.6036 and 0.6125 and 0.6685 | Ceramide d18:1/22:0, ratio analyte/internal standard [4, 9]: 0.2034 and 0.2174 and 0.1793 and 0.213 and 0.2196 and 0.1978 | Ceramide d18:1/24:0, ratio analyte/internal standard [4, 9]: 0.2705 and 0.2427 and 0.2002 and 0.2059 and 0.2011 and 0.2312 | Ceramide d18:1/24:1, ratio analyte/internal standard [4, 9]: 0.2934 and 0.2773 and 0.185 and 0.2472 and 0.2529 and 0.2866 | Dihexosylceramides d18:1/16:0, ratio analyte/internal standard [4, 9]: 0.0212 and 0.02618 and 0.02908 and 0.01607 and 0.02926 and 0.02318 | Dihexosylceramides d18:1/18:0, ratio analyte/internal standard [4, 9]: 0.1307 and 0.1534 and 0.1151 and 0.09786 and 0.1336 and 0.132 | Dihydroceramides d18:0/18:0, ratio analyte/internal standard [4, 9]: 0.1552 and 0.1446 and 0.1353 and 0.136 and 0.1435 and 0.1236 | Monohexosylceramides d18:1/16:0, ratio analyte/internal standard [4, 9]: 1.65E-01 and 1.78E-01 and 1.43E-01 and 1.25E-01 and 1.46E-01 and 1.28E-01 | Monohexosylceramides d18:1/18:0, ratio analyte/internal standard [4, 9]: 8.33E-01 and 9.27E-01 and 8.86E-01 and 8.09E-01 and 8.11E-01 and 9.45E-01 | Monohexosylceramides d18:1/20:0, ratio analyte/internal standard [4, 9]: 1.68E-01 and 1.71E-01 and 1.46E-01 and 1.34E-01 and 1.36E-01 | Monohexosylceramides d18:1/22:0, ratio analyte/internal standard [4, 9]: 6.26E-02 and 5.07E-02 and 4.08E-02 and 5.38E-02 and 5.08E-02 and 5.16E-02 | Monohexosylceramides d18:1/24:0, ratio analyte/internal standard [4, 9]: 4.46E-02 and 4.59E-02 and 3.01E-02 and 3.48E-02 and 3.50E-02 and 3.93E-02 | Monohexosylceramides d18:1/24:1, ratio analyte/internal standard [4, 9]: 9.28E-02 and 9.45E-02 and 8.80E-02 and 6.42E-02 and 8.57E-02 and 6.27E-02 | effect on long chain ceramide levels ([4]; rat primary cortical neurons): rapid increase

Molecule: phosphatidylserine
effect on human nSMase2 activity (human nSMase2 [1]; 20 μM SM/PS at equimolar concentration (S5 Fig)): did not significantly affect

Now from value to molecule, other results behind:

inhibition of human nSMase2 activity (human nSMase2 [1]; DMSO up to 1%): no significant inhibition
Molecule: C[S+](C)[O-] [DMSO]
human nSMase2 activity (human nSMase2 [1]; 0.1% DMSO): 2703.2500 RFU and 2871.2510 RFU and 2454.0980 RFU and 2595.8260 RFU | human nSMase2 activity (human nSMase2 [1]; 1% DMSO): 2256.2870 RFU and 2299.5150 RFU and 2360.8330 RFU and 2629.8220 RFU | human nSMase2 activity (human nSMase2 [1]; 10% DMSO): 1706.1510 RFU and 1610.6720 RFU and 1424.4530 RFU and 1442.3390 RFU

human nSMase2 inhibitory activity of analog vs cambinol (human nSMase2 [2]): loss of activity | IC50 (human nSMase2 [2]): > 50 µM
Molecule: O=c1nc(SCc2ccccc2)[nH]c(-c2ccccc2)c1Cc1c(O)ccc2ccccc12 [compound 3]

IC50 (human nSMase2 [2]): > 50 µM | increase in IC50 value (human nSMase2 [2]; vs cambinol): 10 fold
Molecule: O=c1cc(-c2ccccc2)[nH]c(=S)[nH]1 [compound 5]

IC50 (human nSMase2 [2]): 7 ± 1 µM
Molecule: O=c1[nH]c(=S)[nH]c(-c2cccc(Cl)c2)c1Cc1c(O)ccc2ccccc12 [compound 8]

enzymatic activity (human nSMase2 [1]; [SM] 3.91 µM): 212.26 RFU | enzymatic activity (human nSMase2 [1]; [SM] 7.81 µM): 311.45 RFU | enzymatic activity (human nSMase2 [1]; [SM] 15.63 µM): 459.12 RFU | enzymatic activity (human nSMase2 [1]; [SM] 31.25 µM): 722.04 RFU | enzymatic activity (human nSMase2 [1]; [SM] 62.50 µM): 1075.56 RFU | enzymatic activity (human nSMase2 [1]; [SM] 125.00 µM): 1331.12 RFU | enzymatic activity (human nSMase2 [1]; [SM] 250.00 µM): 1431.87 RFU | enzymatic activity (human nSMase2 [1]; [SM] 500.00 µM): 1408.02 RFU
Molecule: sphingomyelin [SM]
